From paper PMC10254045, “Elaboration of the Effective Multi-Target Therapeutic Platform for the Treatment of Alzheimer’s Disease Based on Novel Monoterpene-Derived Hydroxamic Acids” (International Journal of Molecular Sciences, 2023)
Where two headings read alike, the source gives them in different places.

What was measured:
Cell viability, MTT test = format: cell-based; details: human, SH-SY5Y neuroblastoma cells, 24-h exposure, read-out: IC50 cytotoxic action
Description: The culture of human neuroblastoma cells (defined as SH-SY5Y) was cultured in DMEM with the addition of embryonic bovine serum (10%), 2 mM glutamine (DiaM, Moscow, Russia) and penicillin-streptomycin (100 U/Ml–100 µg/mL, PanEco, Moscow, Russia) in conditions of 5% CO2 in the air at 37 °C. Upon reaching 80% confluence, cells in the amount of 1 × 10^4 were placed in 96-well transparent plates and incubated under the same conditions for 24 h. After the incubation time, the cells were exposed to a 24-h exposure to various concentrations of hydroxamic acids dissolved in dimethyl sulfoxide (range from 1 to 100 µM). An equivalent volume of solvent was used as a control (final DMSO content = 1%).
Cell survival analysis was performed using MTT test. To do this, 3-(4,5-dimethylthiazol-2-yl)-2,5-diphenyltetrazolium bromide (MTT, 5 mg/mL, DiaM, Moscow, Russia) was introduced into all wells and incubated at 37 °C for 2 h to restore metabolically active cells of the yellow tetrazolium salt MTT to purple formazane crystals. The resulting formazane was then re-suspended in 200 µL DMSO per well. The optical density was recorded using a multifunctional Cytation™3 flatbed analyzer (BioTek Instruments, Inc., Winooski, VT, USA) at λ = 530 nm.

[1] = Oxygen radical absorbance capacity (ORAC); details: Trolox equivalent; compounds and Trolox 100 µM, AAPH 12 mM
Description: (§1) DPPH is a stable chromogen radical, which is widely used to assess the antioxidant activity of biological objects, in particular when searching for potential therapeutic agents used to maintain the redox balance in the body and treat pathologies associated with the action of free radicals. In turn, the oxygen radical absorbance capacity (ORAC) analysis is based on the removal by potential antioxidants of peroxyl radicals generated by AAPH (2,2’-axobis-2-methyl-propanimidamide, dihydrochloride), preventing the degradation of the fluorescein probe.
The analysis of the absorption capacity of oxygen radicals was performed as described in [151], with some modifications. Trolox (Sigma Aldrich, St. Louis, MI, USA) was used as a standard antioxidant. The studied compounds were introduced into the holes of a 96-hole black tablet with a transparent bottom with Trolox (25 µL; the final concentration was 100 µM) and fluorescein (150 µL; the final concentration was 80 nM, Sigma Aldrich, St. Louis, MI, USA). The resulting mixture was shaken and incubated for 30 min at 37 °C. After a 30-min incubation period, a solution of 2,2’-azobis (2-amidinopropane) dihydrochloride (AAPH) (25 µL; final concentration of 12 mM, Sigma Aldrich, St. Louis, MI, USA) was quickly introduced into all wells of the tablet. The tablet was immediately placed in a multifunctional tablet analyzer Cytation™ 3 (BioTek Instruments, Inc., Winooski, VT, USA). The fluorescence intensity was recorded for 300 min at λex = 480 nm, λem = 520 nm with an interval of every 5 min. In the same experiment, calibration solutions for the reference antioxidant Trolox were used to confirm the validity of the use of this method (0, 6.25, 12.5, 25, 50 and 100 µM).

HDAC6 = target: T1, HDAC6 (Homo sapiens, UniProt Q9UBN7); assay: Fluorimetric measurement of HDAC6 activity (FLUOR DE LYS kit); format: biochemical
T1 construct: purchased Enzo Life Sciences
T1 sequence (Q9UBN7 1-1215): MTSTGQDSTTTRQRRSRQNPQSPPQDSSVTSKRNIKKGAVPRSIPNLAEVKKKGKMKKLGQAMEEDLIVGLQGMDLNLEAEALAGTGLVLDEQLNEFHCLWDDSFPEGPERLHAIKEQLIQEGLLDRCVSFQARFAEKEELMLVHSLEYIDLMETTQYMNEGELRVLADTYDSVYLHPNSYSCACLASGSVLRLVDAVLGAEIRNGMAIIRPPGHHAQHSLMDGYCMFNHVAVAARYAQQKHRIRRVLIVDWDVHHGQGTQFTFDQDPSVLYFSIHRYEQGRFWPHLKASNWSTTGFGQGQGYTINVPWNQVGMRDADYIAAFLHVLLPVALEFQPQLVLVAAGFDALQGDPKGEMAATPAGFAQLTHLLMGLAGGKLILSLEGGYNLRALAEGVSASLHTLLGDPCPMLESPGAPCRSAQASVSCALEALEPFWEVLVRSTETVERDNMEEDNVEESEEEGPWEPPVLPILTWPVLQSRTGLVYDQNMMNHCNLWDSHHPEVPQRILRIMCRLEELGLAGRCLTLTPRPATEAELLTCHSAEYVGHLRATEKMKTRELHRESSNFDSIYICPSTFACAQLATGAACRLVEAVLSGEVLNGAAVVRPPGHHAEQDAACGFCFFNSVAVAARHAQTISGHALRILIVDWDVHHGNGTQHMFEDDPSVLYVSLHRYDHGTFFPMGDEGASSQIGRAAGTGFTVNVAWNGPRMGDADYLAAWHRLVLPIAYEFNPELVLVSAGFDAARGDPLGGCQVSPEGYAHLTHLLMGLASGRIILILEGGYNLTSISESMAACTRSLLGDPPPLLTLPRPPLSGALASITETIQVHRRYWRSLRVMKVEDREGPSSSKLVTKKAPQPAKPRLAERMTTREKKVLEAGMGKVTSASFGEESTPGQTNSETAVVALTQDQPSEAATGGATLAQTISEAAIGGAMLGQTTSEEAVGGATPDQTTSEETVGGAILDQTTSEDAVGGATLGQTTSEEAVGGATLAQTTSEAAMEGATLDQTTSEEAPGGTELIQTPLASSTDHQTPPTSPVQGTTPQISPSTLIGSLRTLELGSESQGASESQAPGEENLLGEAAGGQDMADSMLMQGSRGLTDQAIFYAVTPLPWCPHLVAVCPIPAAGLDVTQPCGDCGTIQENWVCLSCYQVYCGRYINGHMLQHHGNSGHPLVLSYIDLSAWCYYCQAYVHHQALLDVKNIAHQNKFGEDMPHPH

[2] = target: T2, β-amyloid peptide 1-42 (Aβ1-42) (Homo sapiens, UniProt P05067); assay: Thioflavin T fluorescent analysis of Aβ1-42 aggregation; format: biochemical; details: 48 h, compounds 100 µM, Thioflavin T 10 µM, 48 h registration; read-out: prevention of the aggregation of Aβ1-42
T2 construct: the pathological form of β-amyloid peptide 1-42 (Sigma Aldrich); purchased Sigma Aldrich
T2 sequence (P05067 672-713 limits assumed): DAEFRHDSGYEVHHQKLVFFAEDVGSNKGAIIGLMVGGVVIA
Description: The aggregation process of β-amyloid peptide 1-42 (Aβ1-42), caused by hydrophobic interactions of peptide monomers and, as a consequence, the formation of the most toxic polymorphic structure-oligomeric fragments of Aβ, was detected using the fluorescent dye Thioflavin T (Figure 4a). This method is the most widely used for selective staining and the identification of amyloid aggregates, which is confirmed by a large number of works. Fluorescence analysis using Thioflavin T made it possible to monitor the aggregation process of the pathological form of β-amyloid peptide 1-42 (Sigma Aldrich, St. Louis, MI, USA). The experimental protocol was carried out similarly to that described in [58] with some modifications. The registration of changes in the fluorescence of thioflavin T (10 µM, Sigma Aldrich, St. Louis, MI, USA) was performed on a multifunctional tablet analyzer Cytation™3 (BioTek Instruments, Inc., Winooski, VT, USA) at λex = 450 nm, λem = 480 nm. The fluorescence intensity of the solution without Aβ1-42 was subtracted from the fluorescence values of solutions containing protein, due to the need to subtract the background fluorescence.

[3] = DPPH radical scavenging activity; details: Trolox equivalent; compounds and Trolox 100 µM
Description: as §1
The measurement of the antiradical activity of synthesized hydroxamic acids was carried out using the method described in [150]. The studied compounds were introduced into the wells of a 96-well black tablet (the final concentration was 100 microns), after which a freshly prepared solution of 2,2-diphenyl-1-picrylhydrazyl (Sigma Aldrich, St. Louis, Missouri, USA) was added. After the incubation time had elapsed, the DPPH radical-scavenging activity was measured using a multifunctional Cytation™3 tablet analyzer (BioTek Instruments, Inc., Winooski, VT, USA) at λ = 517 nm by the difference in the reduction of the DPPH radical peak between control samples containing an equivalent volume of solvent and samples with the substances under study.

[4] = Table 1, read-out: HDAC6-Inhibitory Effect, IC50

Compound	IC50 at 24 h (Cell viability, MTT test) [µM]	ORAC value (TE) [1] [TE]	IC50 (HDAC6; [4]) [µM]	inhibition at 100 µM [2] [%]	DPPH value (TE) [3] [TE]	melting point [°C]	IC50 (HDAC6; HDAC6, values as listed in Table S1 beside docking score, read-out: IC50) [µM]
C=C(C)[C@@H]1CC=C(CNC(=O)CCCCCCCC(=O)NO)CC1 [Compound 31, (S)-N1-hydroxy-N9-((4-(prop-1-en-2-yl)cyclohex-1-en-1-yl)methyl)nonanediamide]	89.4 ± 3.92	0.82	0.74 ± 0.02	≤ 40	0.30	110.8	–
C=C(C)[C@@H]1CC=C(CNC(=O)c2ccc(/C=C/C(=O)NO)cc2)CC1 [Compound 38a, (S,E)-4-(3-(hydroxyamino)-3-oxoprop-1-en-1-yl)-N-((4-(prop-1-en-2-yl)cyclohex-1-en-1-yl)methyl)benzamide]	> 100	1.00	–	60.1	0.66	167.2 to 167.6	7.74
C=C(C)[C@@H]1CC=C(CNC(=O)CCCCCCC(=O)NO)CC1 [Compound 30, (S)-N1-Hydroxy-N8-((4-(prop-1-en-2-yl)cyclohex-1-en-1-yl)methyl)octanediamide]	> 100	0.87	0.56 ± 0.01	≤ 40	0.25	113.5 to 116	–
